# From patent US20100292316A1, “IMPROVED THERAPEUTIC METHODS AND COMPOSITIONS COMPRISING CHROMAN RING COMPOUNDS” (Research Development Foundation, priority 2007, published 2010)
# Test system: MDA-MB-435 human breast cancer cells
# Assay: DNA microarray gene expression after α-TEA treatment
# Type: cell-based
# Set-up: scale not given here
# Conditions: MDA-MB-435, 40 μM, 12 h
# Experimental: In order to identify genes that are involved in α-TEA induced apoptosis in cancer cells the gene expression levels in MDA-MB-435 human breast cancer cells were analyzed after treatment with α-TEA. The MDA-MB-435 cell line is an estrogen-receptor negative/estrogen-nonresponsive epithelial cell line isolated from the pleural effusions of a human with breast cancer (Price et al., 1990). DNA microarray data obtained from treatment of MDA-MB-435 cells with 40 μM α-TEA for 12 h identified approximately 400 genes that gave consistent responses to α-TEA treatment. Genes that passed a minimum quality control threshold were analyzed using online software (The Database for Annotation, Visualization and Integrated Discovery (DAVID)).
# MDA-MB-435 cells were cultured in MEM with Earle's balanced salts (Life Technologies, Inc., Grand Island, N.Y.) supplemented with 5% FBS (Hyclone Laboratories, Logan, Utah) plus 2 mM glutamine, 100 μg/ml streptomycin, 100 IU/ml penicillin, 1×(v/v) nonessential amino acids, 2×(v/v) MEM vitamins, and 1 mM sodium pyruvate (Sigma).
# Messenger RNA was isolated from the treated MDA-MB-435 cells (3×150 mm dishes) using the FastTrack 2.0 kit (Invitrogen) according to the manufacturer's instructions. First, 15 ml of lysis buffer was added into the cell pellets and mixed thoroughly. The cell lysates were incubated in 45° C. for 45 min with intermittent inversion. Then, 950 μl of 5 M NaCl stock solution was added and mixed thoroughly. Any remaining DNA was sheared by passing the lysates 3 times through a sterile plastic syringe fitted with a 21 gauge needle. Next, the calculated amount of oligo-dT cellulose was added to each sample and allowed to swell for 2 minutes. The tube was rocked gently in a horizontal position for 60-90 minutes at room temperature. The oligo-dT slurry was centrifuged at 4000 rpm for 5 minutes at room temperature, the supernatant was carefully removed from the resin bed. The oligo-dT cellulose was then resuspended in 20 ml of Binding Buffer by vortexing and centrifuged at 4000 rpm for 5 minutes at room temperature, the binding buffer was removed from the resin bed; this step was repeated with 10 ml of binding buffer. The oligo-dT cellulose was washed three times in 10 ml of Low Salt Wash Buffer and centrifuged. The resulting oligo-dT cellulose was resuspended in 800 μl of Low Salt Wash Buffer using a 1 ml pipette tip with a cut-end and quickly transferred to a spin column seated in a microcentrifuge tube. The column was centrifuged at 1000 rcf (about 3000 rpm on a typical microcentrifuge) for 10 seconds at room temperature and the flow-through liquid was discarded. The transfer and centrifugation steps were repeated until all of the oligo-dT cellulose was in the spin column. Then, the spin column containing the oligo-dT cellulose was placed into a clean microcentrifuge tube. The oligo-dT cellulose was resuspended in 200 μl of preheated Elution Buffer (65° C.) using a 200 μl cut-end pipette tip to gently swirl the cellulose, without puncturing the underlying spin column membrane. The column was allowed to stand for 2 minutes at room temperature and then centrifuged at 1000 rcf for 30 seconds at room temperature. This step was repeated with 200 μl of heated Elution Buffer. Then, 40 μl of 3 M sodium acetate and 1 ml of 95% ethanol were added into the combined 400 μl eluent which contained the mRNA and mixed thoroughly. The mRNA mixture was stored at −80° C. overnight. Thenext day, the mixture was thawed and centrifuged at 14,000 rpm in a microcentrifuge for 15 minutes at 4° C., the ethanol was then carefully removed from the mRNA pellet. The mRNA was washed with 70% ethanol once more and resuspended in 20 μl of Elution Buffer (heated as before). […]
structure (smiles),measurement,setting,value
Cc1c(C)c2c(c(C)c1OCC(=O)O)CC[C@@](C)(CCC[C@H](C)CCC[C@H](C)CCCC(C)C)O2 [α-TEA],Average level,"Clone IMAGE: 5311129, mRNA, AI362218",−0.8568
same,Average level,"EST, AI201652",−0.7242
same,Average level,"Homo sapiens transcribed sequence with strong similarity to protein pdb: 1BGM, AA779865",−0.735
same,Average level,"Homo sapiens transcribed sequences, R55747",−0.756
same,Average level,"MRNA full length insert cDNA clone EUROIMAGE 200999, N54993",−0.698
same,Average level,"Transcribed sequences, H99855",−0.8377
same,Average level,"gene AGPAT3, R61733",−0.743
same,Average level,"gene AGTRAP, AA152101",−0.574
same,Average level,"gene AKR1C2, AI924357",−0.865
same,Average level,"gene AMD1, R82299",−0.758
same,Average level,"gene ATOX1, AA418755",−0.898
same,Average level,"gene ATP5G1, AA046701",−0.6558
same,Average level,"gene BAT3, AA598629",−0.5502
same,Average level,"gene BST2, AA485371",−0.5935
same,Average level,"gene C7orf38, AA452899",−0.6558
same,Average level,"gene C9orf58, H48148",−0.5662
same,Average level,"gene C13orf8, AA463267",−0.6892
same,Average level,"gene C14orf24, AA035549",−0.6602
same,Average level,"gene C16orf34, AA045658",−0.7252
same,Average level,"gene CDCA2, AI248208",−0.719
same,Average level,"gene CHD9, R81880",−0.6642
same,Average level,"gene CLCN3, H69811",−0.6208
same,Average level,"gene COX7B, AA629999",−0.8798
same,Average level,"gene CRABP1, AA421218",−0.7923
same,Average level,"gene CRTAP, AA490280",−0.7943
same,Average level,"gene CTNNB1, AW058504",−0.59
same,Average level,"gene CUGBP2, AA047257",−0.8218
same,Average level,"gene CXXC5, R63735",−0.8002
same,Average level,"gene D4ST1, AA922082",−0.6567
same,Average level,"gene DAG1, AA496691",−0.8377
same,Average level,"gene DCT, N27147",−0.8518
same,Average level,"gene DEPDC6, AA621364",−0.93
same,Average level,"gene DHCR24, AA482324",−0.8912
same,Average level,"gene DPY19L2, AA134696",−0.7558
same,Average level,"gene EPHB2, W72792",−0.6663
same,Average level,"gene ERBB3, AA664212",−0.864
same,Average level,"gene ETFB, AI364521",−0.6326
same,Average level,"gene FAM83D, R96941",−0.5566
same,Average level,"gene FBXL13, AA676859",−0.8802
same,Average level,"gene FLJ12973, AI220472",−0.7147
same,Average level,"gene FLJ21901, AI392678",−0.8782
same,Average level,"gene FZD4, AA677200",−0.765
same,Average level,"gene GFER, AA465021",−0.5873
same,Average level,"gene GGH, AA455800",−0.8048
same,Average level,"gene GNG2, N26108",−0.9006
same,Average level,"gene HBS1L, AI003293",−0.6832
same,Average level,"gene HNRPM, AA504272",−0.6512
same,Average level,"gene HSBP1, AA481263",−0.735
same,Average level,"gene IFT122, R97234",−0.585
same,Average level,"gene ITGB8, AI246160",−0.7288
same,Average level,"gene KIAA0664, AI363909",−0.8538
same,Average level,"gene LGALS13, AA706870",−0.8452
same,Average level,"gene LOC151162, H79970",−0.6815
same,Average level,"gene LOC286334, AA425105",−0.8562
same,Average level,"gene LRRK2, AA283609",−0.8566
same,Average level,"gene LTBP3, R60197",−0.6094
same,Average level,"gene MAF1, AA598994",−0.8305
same,Average level,"gene MAN1A2, R22905",−0.8387
same,Average level,"gene MGA, AA011551",−0.74
same,Average level,"gene MGC4692, AA455039",−0.7943
same,Average level,"gene MLANA, N26562",−0.551
same,Average level,"gene MVK, R06716",−0.673
same,Average level,"gene MYEF2, H96671",−0.6864
same,Average level,"gene MYO5A, H20809",−0.6754
same,Average level,"gene NETO2, AA456821",−0.6854
same,Average level,"gene NOV, AW008840",−0.7034
same,Average level,"gene NQO1, AA455538",−0.8166
same,Average level,"gene NUPL1, AA158352",−0.8132
same,Average level,"gene NUPL2, R96358",−0.7312
same,Average level,"gene NUSAP1, AA620485",−0.617
same,Average level,"gene OVOS2, AA600184",−0.9275
same,Average level,"gene PCDHB16, AI218958",−0.7648
same,Average level,"gene PFKFB2, R16146",−0.6214
same,Average level,"gene PLEKHF2, AA886792",−0.8846
same,Average level,"gene SCD, R00707",−0.8732
same,Average level,"gene SFRS2, AA454585",−0.7076
same,Average level,"gene SGCD, AA479286",−0.8855
same,Average level,"gene SLC26A2, AA704222",−0.9114
same,Average level,"gene SLC44A1, R59173",−0.6684
same,Average level,"gene SLC44A1, T61913",−0.6626
same,Average level,"gene SNX12, AA629796",−0.611
same,Average level,"gene SOS1, H64324",−0.6138
same,Average level,"gene STARD7, R37351",−0.7862
same,Average level,"gene TBC1D1, R32437",−0.8948
same,Average level,"gene TBC1D16, AI431804",−0.9208
same,Average level,"gene TMPO, H21943",−0.7848
same,Average level,"gene TMPO, T63980",−0.7846
same,Average level,"gene TNFRSF21, AA490494",−0.8622
same,Average level,"gene TNS3, T74023",−0.8212
same,Average level,"gene TOP2A, AA504348",−0.7142
same,Average level,"gene TREX1, AA279658",−0.861
same,Average level,"gene TRIM2, AA464935",−0.922
same,Average level,"gene TSHZ1, AA426522",−0.865
same,Average level,"gene TWSG1, N91767",−0.6
same,Average level,"gene USP40, H29211",−0.8932
same,Average level,"gene VAV3, H10045",−0.9075
same,Average level,"gene VPRBP, AA644335",−0.702
same,Average level,"gene VPS13D, AI005042",−0.7177
same,Average level,"gene WASPIP, AA283699",−0.8604
same,Average level,"gene ZNF291, AA001504",−0.6362
